Columns and labels:
[1] = tested on: RAW264.7; assay: Anti-inflammatory activity in mouse RAW264.7 cells assessed as inhibition of LPS-induced thromboxane B2 production incubated for 48 hrs by ELISA method; format: functional, cell-based; conditions: RAW264.7, 48 h
[2] = tested on: RAW264.7; assay: Anti-inflammatory activity in mouse RAW264.7 cells assessed as inhibition of LPS-induced prostaglandin E2 production incubated for 48 hrs by ELISA method; format: functional, cell-based; conditions: RAW264.7, 48 h
[3] = tested on: MCF7; assay: Cytostatic activity against human MCF7 cells incubated for 6 days by alamar blue reagent based resazurin metabolism assay; format: functional, cell-based; conditions: MCF7, 144 h
[4] = tested on: HT-29; assay: Cytostatic activity against human HT-29 cells incubated for 72 hrs by alamar blue reagent based resazurin metabolism assay; format: functional, cell-based; conditions: HT-29, 72 h
[5] = tested on: RAW264.7; assay: Anti-inflammatory activity in mouse RAW264.7 cells assessed as inhibition of LPS-induced thromboxane B2 production at 10 uM incubated for 48 hrs by ELISA method; format: functional; conditions: RAW264.7, 48 h
[6] = tested on: RAW264.7; assay: Anti-inflammatory activity in mouse RAW264.7 cells assessed as inhibition of LPS-induced prostaglandin E2 production at 10 uM incubated for 48 hrs by ELISA method; format: functional; conditions: RAW264.7, 48 h

Structure (SMILES) | IC50 [1] | IC50 [2] | IC50 [3] | IC50 [4] | inhibition at 10 µM [5] | inhibition at 10 µM [6]
C=C1C(=O)O[C@@H]2C[C@](C)(O)C3=CC[C@@](C)(O)[C@@H]3C[C@H]12 | 37.5 µM | 21.2 µM | – | – | – | –
C=C1C(=O)O[C@@H]2C[C@H](C)C3=CC[C@@](C)(O)[C@@H]3C[C@H]12 | 17.7 µM | 6.5 µM | 24.2 µM | 28.2 µM | – | –
C=C1C(=O)O[C@@H]2C[C@H](C)[C@]34O[C@H]3C[C@@](C)(O)[C@@H]4C[C@H]12 | 11.7 µM | 3 µM | 12.1 µM | 18.6 µM | – | –
C=C1C(=O)O[C@@H]2C[C@H](C)[C@]34O[C@H]3C[C@@](C)(OC(C)=O)[C@@H]4C[C@H]12 | 6.5 µM | 0.7 µM | 6.9 µM | 14.1 µM | – | –
C=C1C(=O)O[C@@H]2C[C@H](C)[C@]3(O)[C@@H](C[C@H]12)[C@](C)(OC(C)=O)C[C@@H]3O | 34.6 µM | 10.5 µM | 27.2 µM | 29.3 µM | – | –
C=C1C(=O)O[C@@H]2C[C@H](C)[C@]34O[C@](C)(C[C@@H]3OC(C)=O)[C@@H]4C[C@H]12 | 38.6 µM | 16.3 µM | > 65 µM | > 65 µM | – | –
C=C1C(=O)O[C@@H]2CC(C)=C3CC[C@@](C)(O)[C@@H]3C[C@H]12 | 12.9 µM | 3.2 µM | 13.7 µM | 18.1 µM | – | –
C=C1C(=O)O[C@@H]2CC(C)=C3CC[C@@](C)(OC(C)=O)[C@@H]3C[C@H]12 | 2.6 µM | 3.5 µM | 8 µM | 4.8 µM | – | –
C=C(CO)[C@@H]1CCC(C)=C([C@H](C)CCC(=O)O)C1 | > 79 µM | > 79 µM | > 79 µM | > 79 µM | – | –
C[C@]12CCC(=O)C=C1CC[C@@H]1[C@@H]2[C@@H](O)C[C@@]2(C)[C@H]1CC[C@]2(O)C(=O)CO [HYDROCORTISONE] | – | – | – | – | 42% | 21%
C=C1C(=O)O[C@@H]2C[C@H](C)C(CCC(C)=O)=CC[C@H]12 [TOMENTOSIN] | 15.7 µM | 7.3 µM | 26.6 µM | 56.5 µM | – | –

Source: ChEMBL document CHEMBL3593199, “Guaianolides and a seco-Eudesmane from the Resinous Exudates of Cushion Bush (Leucophyta brownii) and Evaluation of Their Cytostatic and Anti-inflammatory Activity” (J Nat Prod, 2015)
